From EP4806421A2, “PHARMACEUTICAL COMPOSITIONS OF NANOCRYSTALLIZED XANTHATIN AND USE THEREOF AS AN ANTI-TUMOR AGENT” (Centro de Investigación y Desarrollo de Medicamentos CIDEM, priority 2023, dated 2025)

Columns and labels:
[1] = test system: HT-29 human colorectal adenocarcinoma tumor line; assay: Cell cycle progression by flow cytometry (PI/RNase staining); format: cell-based; conditions: HT-29 cells, 10 and 20 µM, 48 h, compared with untreated control and docetaxel 2 µM positive control
Protocol: Assay to evaluate the in vitro antiproliferative activity of nanocrystallized xanthatin by flow cytometry.
The antiproliferative activity through cell cycling arrest was evaluated in HT-29 cells. Cells were cultured in 6-well plates (2×10^5 and 1×10^5 cells/ml, respectively) until 90% confluence was reached. Three xanthatin samples were evaluated: commercial, laboratory-isolated, and nanocrystallized xanthatin at concentrations of 10 and 20 µM. Prior to treatment, both commercial and isolated xanthatin were dissolved in DMSO, unlike nanocrystallized xanthatin, which was added directly to the cell culture medium. Medium supplemented with 1% FBS was used as the control. Docetaxel 2 µM was used as a positive control for cell cycle arrest in G2/M. The treatments were added to the medium supplemented with 1% FBS on the day after seeding the cells on the plates. The cells were incubated for 48 h upon the treatments, harvested, fixed in 100% ethanol, and stored at -20°C. Cell cycle distribution was next assessed using flow cytometry. On the day of the assay, samples were incubated with a PI/Rnase mixture at room temperature and in the dark for 20 min prior to analysis.

[2] = test system: murine U14 cervical carcinoma cells; assay: In vivo antitumor effect of in situ gelation containing xanthatin nanocrystals, tumor implant near the cervix; parameters: species or system female BALB/c mice; conditions: hydrogel intravaginal 0.850 mg nanocrystallized xanthatin per mouse daily for 5 days, carboplatin i.v. 0.675 mg per mouse for 3 days
Protocol: Evaluation of the in vivo antitumor effect of in situ gelation containing xanthatin nanocrystals was performed using murine U14 cervical carcinoma cells inoculated into the cervix of female BALB/c mice with an average weights of 22-24 g. Tumor implantation was performed by inoculating the submucosa near the cervix of each animal with 25 µL of cell suspension in PBS, with a total of 4×10^5 cells/mouse. Four randomly distributed groups of 6 animals per group were formed. The treatment schedule was carried out for 5 days with a daily intravaginal infusion of the thermosensitive hydrogel containing the xanthatin nanocrystals (8.5 µL, 0.850 mg of nanocrystallized xanthatin per mouse) and placebo, and for 3 days with a daily intravaginal infusion of […] Tumor weight and tumor inhibition rates were evaluated. Tumor inhibition rate was calculated using the following formula: TIR = (Aw −Ax)/([…]) × 100 [formula]
Where: • TIR means tumor inhibition rate in %. • AW means the average weight of tumors in the control group. • Ax means the average weight of the tumors of the treated group.

[3] = test system: HeLa cervical carcinoma tumor lines; assay: MTT reduction assay, cell viability (HeLa); format: cell-based, human; conditions: HeLa cells, 10 and 20 µM, 24 h, isolated xanthatin dissolved in DMSO, nanocrystals added directly to the medium
Protocol: (§1) Cell growth inhibition of nanocrystallized xanthatin assessed using the MTT assay.
(§2) The viability of the cultured cells was assessed using the MTT reduction assay. The assay was performed using the method described by Mosmann (1983). HT-29 and HeLa cells were seeded in 96-well plates at 10^4 cells/ml and 5x10^3 cells/ml respectively. The cells were cultured in Dulbecco's modified Eagle's medium (DMEM) supplemented with 10% FBS, 1% glutamine, triple antibiotic (3A), and 25 mM glucose, and maintained at 37°C in a 5% CO2 incubator until 80-90% confluence. After 24h of incubation, to ensure cell adhesion, the medium was removed and different concentrations (10 and 20 µM) of either commercial xanthatin, isolated xanthatin, and xanthatin nanocrystals, or as a negative control medium supplemented with 1% DMSO, were added. Prior to treatment, the commercial and isolated xanthatin samples were dissolved in DMSO, unlike the nanocrystallized xanthatin that was directly added to the cell culture medium. The prepared plates were incubated for 24 h, and 50 µL MTT (5 mg/ml) per well was added to a final concentration of 1 mg/ml. […] Relative cell viability was determined by measuring the absorbance at 540 nm on an ELISA plate reader (Tecan Sunrise MR20-301, TECAN Austria). Absorbance is directly proportional to the level of cell proliferation or viability. […]

[4] = test system: HT-29 colorectal adenocarcinoma; assay: MTT reduction assay, cell viability (HT-29); format: cell-based, human; conditions: HT-29 cells, 10 and 20 µM, 24 h, isolated xanthatin dissolved in DMSO, nanocrystals added directly to the medium
Protocol: as §1, §2

Question: For `C=C1C(=O)O[C@H]2C[C@H](C)C(/C=C/C(C)=O)=CC[C@H]12` [commercial xanthatin, xanthatin], which “cell cycle arrest in the G2/M phase” value [1] is on record?
Answer: Its value is “no statistically significant differences”.

Question: Which results are given for `N.N.O=C([O-])C1(C(=O)[O-])CCC1.[Pt+2]` [injectable carboplatin, carboplatin]?
Answer: tumor inhibition rate ([2]; calculated from average tumor weights): 54.4%; tumor weight ([2]; with respect to the placebo and control groups): significant decrease

Question: For `C=C1C(=O)O[C@H]2C[C@H](C)C(/C=C/C(C)=O)=CC[C@H]12` [laboratory isolated xanthatin, xanthatin], which viability inhibition [3] is on record?
Answer: Its viability inhibition is “significantly higher than that of commercial xanthatin”.

Question: What about the “cell cycle arrest in the G2/M phase” value ([1]; listed as isolated xanthatin) of the same compound?
Answer: Its value is “induced cell cycle arrest in the G2/M phase”.

Question: And the viability inhibition [4]?
Answer: The viability inhibition was “significantly higher than that of commercial xanthatin”.
